The results in this text go back to patent US9073855B2, “BCL-2 selective apoptosis-inducing agents for the treatment of cancer and immune diseases” (AbbVie Inc., priority 2008, dated 2015).

Broadly, the Ki is a measure of affinity in units of concentration, obtained from inhibition or displacement.

For one experiment, the target named is GST-Bcl-2 (Homo sapiens, UniProt P10415). Put plainly: TR-FRET binding assay, GST-Bcl-2 with F-Bak peptide probe. The conditions noted are these: TR-FRET Binding Affinity, GST-Bcl-2, F-Bak peptide probe. The protocol:
(§1) Tb-anti-GST antibody was purchased from Invitrogen (Catalog No. PV4216).
(§2) Representative compounds were serially diluted in dimethyl sulfoxide (DMSO) starting at 50 μM (2× starting concentration; 10% DMSO) and 10 μL were transferred into a 384-well plate.
(§3) The samples were then mixed on a shaker for 1 minute and incubated for an additional 3 hours at room temperature. For each assay, the probe/antibody and protein/probe/antibody were included on each assay plate as negative and positive controls, respectively. Fluorescence was measured on the ENVISION plate reader (Perkin Elmer) using a 340/35 nm excitation filter and 520/525 (F-Bak peptide) and 495/510 nm (Tb-labeled […] antibody) emission filters.
(§4) The inhibition constant (Ki) is the dissociation constant of an enzyme-inhibitor complex or a protein/small molecule complex, wherein the small molecule is inhibiting binding of one protein to another protein or peptide. […] Inhibition constants were determined using Wang's equation (Wang Z-X., An Exact Mathematical Expression For Describing Competitive Binding Of Two Different Ligands To A Protein Molecule. FEBS Lett. 1995, 360:111-4).
A general note: TR-FRET usually uses a lanthanide donor and a delayed reading to cut background.

The target of another experiment is GST-Bcl-XL (Homo sapiens, UniProt Q07817). Nature of the experiment: TR-FRET binding assay, GST-Bcl-XL with F-Bak peptide probe. The note with it: TR-FRET Binding Affinity, GST-Bcl-XL, F-Bak peptide probe. As for the experimental part: as §1, §2, §3, §4
Sequence of GST-Bcl-XL (Q07817 whole entry): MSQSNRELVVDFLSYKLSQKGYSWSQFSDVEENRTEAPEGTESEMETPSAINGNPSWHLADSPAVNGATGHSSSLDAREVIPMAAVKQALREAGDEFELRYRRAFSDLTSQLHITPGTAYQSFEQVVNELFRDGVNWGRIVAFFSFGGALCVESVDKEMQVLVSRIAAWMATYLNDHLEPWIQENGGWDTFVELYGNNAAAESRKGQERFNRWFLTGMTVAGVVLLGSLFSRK

Sequence of GST-Bcl-2 (P10415 whole entry): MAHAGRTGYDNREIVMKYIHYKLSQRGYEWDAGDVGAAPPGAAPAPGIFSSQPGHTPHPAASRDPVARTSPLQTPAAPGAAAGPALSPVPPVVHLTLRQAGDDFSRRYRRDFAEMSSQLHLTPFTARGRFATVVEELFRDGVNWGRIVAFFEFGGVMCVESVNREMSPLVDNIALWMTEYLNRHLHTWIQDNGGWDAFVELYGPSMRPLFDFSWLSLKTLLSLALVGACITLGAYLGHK

As for `O=C(NS(=O)(=O)c1ccc(NCC2CCOCC2)c([N+](=O)[O-])c1)c1ccc(N2CCN(Cc3ccccc3-c3ccc(Cl)cc3)CC2)cc1Oc1cccc2ccccc12` [Example 34, 4-{4-[(4′-chloro-1,1′-biphenyl-2-yl)methyl]piperazin-1-yl}-2-(1-naphthyloxy)-N-({3-nitro-4-[(tetrahydro-2H-pyran-4-ylmethyl)amino]phenyl}sulfonyl)benzamide], the Ki came out at 1.99 nM at GST-Bcl-2 and 88 nM at GST-Bcl-XL.
As for `O=C(NS(=O)(=O)c1ccc(NCCCN2CCOCC2)c([N+](=O)[O-])c1)c1ccc(N2CCN(Cc3ccccc3-c3ccc(Cl)cc3)CC2)cc1Oc1ccc2ccccc2c1` [Example 36, 4-{4-[(4′-chloro-1,1′-biphenyl-2-yl)methyl]piperazin-1-yl}-N-({4-[(3-morpholin-4-ylpropyl)amino]-3-nitrophenyl}sulfonyl)-2-(2-naphthyloxy)benzamide], the values for the Ki on GST-Bcl-2 and at GST-Bcl-XL were 0.796 nM and 8.99 nM, respectively.
For `O=C(NS(=O)(=O)c1ccc(NCC2CCOCC2)c(S(=O)(=O)C(F)(F)F)c1)c1ccc(N2CCN(Cc3ccccc3-c3ccc(Cl)cc3)CC2)cc1Oc1ccc2ccccc2c1` [Example 37, 4-{4-[(4′-chloro-1,1′-biphenyl-2-yl)methyl]piperazin-1-yl}-2-(2-naphthyloxy)-N-({4-[(tetrahydro-2H-pyran-4-ylmethyl)amino]-3-[(trifluoromethyl)sulfonyl]phenyl}sulfonyl)benzamide] the same measures were 0.464 nM and 44.4 nM.
With `CN(C)CCCNc1ccc(S(=O)(=O)NC(=O)c2ccc(N3CCN(Cc4ccccc4-c4ccc(Cl)cc4)CC3)cc2Oc2cccc3cnccc23)cc1[N+](=O)[O-]` [Example 42, 4-{4-[(4′-chloro-1,1′-biphenyl-2-yl)methyl]piperazin-1-yl}-N-[(4-{[3-(dimethylamino)propyl]amino}-3-nitrophenyl)sulfonyl]-2-(isoquinolin-5-yloxy)benzamide], the Ki at GST-Bcl-2 stood at 0.048 nM; on GST-Bcl-XL, 3.84 nM.
`CN(C)CCCNc1ccc(S(=O)(=O)NC(=O)c2ccc(N3CCN(Cc4ccccc4-c4ccc(Cl)cc4)CC3)cc2Oc2ccc3cc[nH]c3c2)cc1[N+](=O)[O-]` [Example 47, 4-{4-[(4′-chloro-1,1′-biphenyl-2-yl)methyl]piperazin-1-yl}-N-[(4-{[3-(dimethylamino)propyl]amino}-3-nitrophenyl)sulfonyl]-2-(1H-indol-6-yloxy)benzamide]: the inhibition constant (Ki) on GST-Bcl-2 stood at 6.63 nM; at GST-Bcl-XL, 104 nM.
For the molecule `CC1(C)CCC(c2ccc(Cl)cc2)=C(CN2CCN(c3ccc(C(=O)NS(=O)(=O)c4ccc(NCCCN5CCOCC5)c([N+](=O)[O-])c4)c(Oc4ccc5[nH]ccc5c4)c3)CC2)C1` [Example 50, 4-(4-{[2-(4-chlorophenyl)-5,5-dimethylcyclohex-1-en-1-yl]methyl}piperazin-1-yl)-2-(1H-indol-5-yloxy)-N-({4-[(3-morpholin-4-ylpropyl)amino]-3-nitrophenyl}sulfonyl)benzamide], the Ki amounted to 0.471 nM on GST-Bcl-2 and 90.1 nM at GST-Bcl-XL.
For `CN(C)CCCNc1ccc(S(=O)(=O)NC(=O)c2ccc(N3CCN(CC4=C(c5ccc(Cl)cc5)CCC(C)(C)C4)CC3)cc2Oc2ccc3[nH]ccc3c2)cc1[N+](=O)[O-]` [Example 51, 4-(4-{[2-(4-chlorophenyl)-5,5-dimethylcyclohex-1-en-1-yl]methyl}piperazin-1-yl)-N-[(4-{[3-(dimethylamino)propyl]amino}-3-nitrophenyl)sulfonyl]-2-(1H-indol-5-yloxy)benzamide] the same measures were 0.252 nM and 15.6 nM.
For `O=C(NS(=O)(=O)c1ccc(NCCCN2CCOCC2)c([N+](=O)[O-])c1)c1ccc(N2CCN(Cc3ccccc3-c3ccc(Cl)cc3)CC2)cc1Oc1cccc2[nH]ccc12` [Example 58, 4-{4-[(4′-chloro-1,1′-biphenyl-2-yl)methyl]piperazin-1-yl}-2-(1H-indol-4-yloxy)-N-({4-[(3-morpholin-4-ylpropyl)amino]-3-nitrophenyl}sulfonyl)benzamide] the same measures were 1.08 nM and 288 nM.
Turning to `COc1ccc(S(=O)(=O)NC(=O)c2ccc(N3CCN(Cc4ccccc4-c4ccc(Cl)cc4)CC3)cc2Oc2ccccc2)cc1` [Example 60, 4-{4-[(4′-chloro-1,1′-biphenyl-2-yl)methyl]piperazin-1-yl}-N-[(4-methoxyphenyl)sulfonyl]-2-phenoxybenzamide], the Ki was 18.9 nM at GST-Bcl-2 and above 660 nM on GST-Bcl-XL.
For `Cc1ccc(S(=O)(=O)NC(=O)c2ccc(N3CCN(Cc4ccccc4-c4ccc(Cl)cc4)CC3)cc2Oc2ccccc2)cc1` [Example 61, 4-{4-[(4′-chloro-1,1′-biphenyl-2-yl)methyl]piperazin-1-yl}-N-[(4-methylphenyl)sulfonyl]-2-phenoxybenzamide], the Ki on GST-Bcl-2 is 52.2 nM; on GST-Bcl-XL, above 660 nM.
Take `O=C(NS(=O)(=O)c1ccc(NCC2CCOCC2)c(S(=O)(=O)C(F)(F)F)c1)c1ccc(N2CCN(Cc3ccccc3-c3ccc(Cl)cc3)CC2)cc1Oc1ccc2[nH]ccc2c1` [Example 62, 4-{4-[(4′-chloro-1,1′-biphenyl-2-yl)methyl]piperazin-1-yl}-2-(1H-indol-5-yloxy)-N-({4-[(tetrahydro-2H-pyran-4-ylmethyl)amino]-3-[(trifluoromethyl)sulfonyl]phenyl}sulfonyl)benzamide]: the results for the Ki at GST-Bcl-2 and on GST-Bcl-XL were 3.52 nM and 571 nM, respectively.
Turning to `CN(C)CCCNc1ccc(S(=O)(=O)NC(=O)c2ccc(N3CCN(Cc4ccccc4-c4ccc(Cl)cc4)CC3)cc2Oc2ccc3[nH]ccc3c2)cc1S(=O)(=O)C(F)(F)F` [Example 64, 4-{4-[(4′-chloro-1,1′-biphenyl-2-yl)methyl]piperazin-1-yl}-N-({4-{[3-(dimethylamino)propyl]amino}-3-[(trifluoromethyl)sulfonyl]phenyl}sulfonyl)-2-(1H-indol-5-yloxy)benzamide], the Ki was found to be 0.523 nM on GST-Bcl-2 and 40.3 nM at GST-Bcl-XL.
For `O=C(NS(=O)(=O)c1ccc(NCCCN2CCOCC2)c(S(=O)(=O)C(F)(F)F)c1)c1ccc(N2CCN(Cc3ccccc3-c3ccc(Cl)cc3)CC2)cc1Oc1cccc2[nH]ccc12` [Example 65, 4-{4-[(4′-chloro-1,1′-biphenyl-2-yl)methyl]piperazin-1-yl}-2-(1H-indol-4-yloxy)-N-({4-[(3-morpholin-4-ylpropyl)amino]-3-[(trifluoromethyl)sulfonyl]phenyl}sulfonyl)benzamide], the Ki at GST-Bcl-2 is 4.56 nM; at GST-Bcl-XL, 21.8 nM.
Regarding `CN(C)CCCNc1ccc(S(=O)(=O)NC(=O)c2ccc(N3CCN(CC4=C(c5ccc(Cl)cc5)CC(C)(C)CC4)CC3)cc2Oc2ccc3[nH]ccc3c2)cc1S(=O)(=O)C(F)(F)Cl` [Example 67, N-[(3-{[chloro(difluoro)methyl]sulfonyl}-4-{[3-(dimethylamino)propyl]amino}phenyl)sulfonyl]-4-(4-{[2-(4-chlorophenyl)-4,4-dimethylcyclohex-1-en-1-yl]methyl}piperazin-1-yl)-2-(1H-indol-5-yloxy)benzamide], the results for the Ki on GST-Bcl-2 and on GST-Bcl-XL were 289 nM and above 660 nM, respectively.
For the molecule `O=C(NS(=O)(=O)c1ccc(NCCCN2CCOCC2)cc1)c1ccc(N2CCN(Cc3ccccc3-c3ccc(Cl)cc3)CC2)cc1Oc1ccccc1` [Example 78, 4-{4-[(4′-chloro-1,1′-biphenyl-2-yl)methyl]piperazin-1-yl}-N-({4-[(3-morpholin-4-ylpropyl)amino]phenyl}sulfonyl)-2-phenoxybenzamide], the Ki is 113 nM on GST-Bcl-2 and above 660 nM at GST-Bcl-XL.
For `O=C(NS(=O)(=O)c1ccc(NCC2CCOCC2)c([N+](=O)[O-])c1)c1ccc(N2CCN(Cc3ccccc3-c3ccc(Cl)cc3)CC2)cc1Oc1cccnc1` [Example 79, 4-{4-[(4′-chloro-1,1′-biphenyl-2-yl)methyl]piperazin-1-yl}-N-({3-nitro-4-[(tetrahydro-2H-pyran-4-ylmethyl)amino]phenyl}sulfonyl)-2-(pyridin-3-yloxy)benzamide] the same measures were 2.05 nM and 97.2 nM.
In the case of `CN1CCN(CCNc2ccc(S(=O)(=O)NC(=O)c3ccc(N4CCN(Cc5ccccc5-c5ccc(Cl)cc5)CC4)cc3Oc3ccccc3)cc2[N+](=O)[O-])CC1` [Example 85, 4-{4-[(4′-chloro-1,1′-biphenyl-2-yl)methyl]piperazin-1-yl}-N-[(4-{[2-(4-methylpiperazin-1-yl)ethyl]amino}-3-nitrophenyl)sulfonyl]-2-phenoxybenzamide], the Ki was determined as 0.236 nM at GST-Bcl-2 and 11.5 nM on GST-Bcl-XL.
Consider `CN(C)CCCN(C)c1ccc(S(=O)(=O)NC(=O)c2ccc(N3CCN(Cc4ccccc4-c4ccc(Cl)cc4)CC3)cc2Oc2ccccc2)cc1[N+](=O)[O-]` [Example 87, 4-{4-[(4′-chloro-1,1′-biphenyl-2-yl)methyl]piperazin-1-yl}-N-({4-[[3-(dimethylamino)propyl](methyl)amino]-3-nitrophenyl}sulfonyl)-2-phenoxybenzamide], for which the Ki at GST-Bcl-2 worked out at 0.762 nM; at GST-Bcl-XL, 407 nM.
As for `CN(C)CCCNc1ccc(S(=O)(=O)NC(=O)c2ccc(N3CCN(Cc4ccccc4-c4ccc(Cl)cc4)CC3)cc2Oc2ccccc2)cc1C#N` [Example 90, 4-{4-[(4′-chloro-1,1′-biphenyl-2-yl)methyl]piperazin-1-yl}-N-[(3-cyano-4-{[3-(dimethylamino)propyl]amino}phenyl)sulfonyl]-2-phenoxybenzamide], the Ki on GST-Bcl-2 is 2.13 nM; on GST-Bcl-XL, 284 nM.
